Measurements as given in ChEMBL document CHEMBL5257023, “Identification of leads for antiproliferative activity on MDA-MB-435 human breast cancer cells through pharmacophore and CYP1A1-mediated metabolism” (Eur J Med Chem, 2016).

How the values were obtained:
[1] = molecular target: T1, CYP1A1 (Homo sapiens, UniProt P04798); experiment: Inhibition of recombinant CYP1A1 (unknown origin) assessed as residual enzyme activity using 7-ethoxyresorufin as substrate at 5 uM incubated for 15 mins by resorufin dye based spectrofluorimetry (reference value: 100%); type: ADME; settings: recombinant CYP1A1, probe 7-ethoxyresorufin, read-out: Activity
T1 sequence (P04798 whole entry): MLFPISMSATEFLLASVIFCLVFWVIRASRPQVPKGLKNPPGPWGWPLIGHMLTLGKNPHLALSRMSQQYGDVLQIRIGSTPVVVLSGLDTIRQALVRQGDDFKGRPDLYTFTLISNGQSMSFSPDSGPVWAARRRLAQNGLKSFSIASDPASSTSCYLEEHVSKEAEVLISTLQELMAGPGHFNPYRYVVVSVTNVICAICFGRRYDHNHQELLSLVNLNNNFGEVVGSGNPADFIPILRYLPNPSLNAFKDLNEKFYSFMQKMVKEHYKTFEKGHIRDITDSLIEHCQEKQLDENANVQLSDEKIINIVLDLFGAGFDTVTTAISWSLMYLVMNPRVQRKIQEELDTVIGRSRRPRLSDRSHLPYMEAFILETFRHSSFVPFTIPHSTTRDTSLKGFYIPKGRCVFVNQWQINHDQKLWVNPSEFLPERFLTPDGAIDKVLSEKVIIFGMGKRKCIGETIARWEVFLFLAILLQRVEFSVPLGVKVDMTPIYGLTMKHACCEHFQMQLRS

[2] = system: MCF7; experiment: Anticancer activity against human MCF7 cells assessed as cell growth at 0.1 uM incubated for 48 hrs by SRB assay; type: functional; settings: read-out: Activity
[3] = system: NCI-H226; experiment: Anticancer activity against human NCI-H226 cells assessed as cell growth at 1 uM incubated for 48 hrs by SRB assay; type: functional; settings: read-out: Activity
[4] = molecular target: T2, Cytochrome P450 1A1 (Homo sapiens, UniProt P04798); experiment: Inhibition of recombinant CYP1A1 (unknown origin) assessed as decrease in EROD activity using 7-ethoxyresorufin as substrate incubated for 15 mins by resorufin dye based spectrofluorimetry; type: ADME
T2 sequence (P04798 whole entry): T1 sequence (P04798 whole entry)

[5] = system: MCF7; experiment: Anticancer activity against human MCF7 cells assessed as inhibition of cell growth incubated for 48 hrs by SRB assay; type: functional; settings: for CC50: read-out: LC50 (the source's name)
[6] = system: NCI-H226; experiment: Anticancer activity against human NCI-H226 cells assessed as cell growth at 0.1 uM incubated for 48 hrs by SRB assay; type: functional; settings: read-out: Activity
[7] = system: MCF7; experiment: Anticancer activity against human MCF7 cells assessed as cell growth at 1 uM incubated for 48 hrs by SRB assay; type: functional; settings: read-out: Activity
[8] = molecular target: T1, CYP1A1; experiment: Inhibition of recombinant CYP1A1 (unknown origin) assessed as residual enzyme activity using 7-ethoxyresorufin as substrate at 100 uM incubated for 15 mins by resorufin dye based spectrofluorimetry (reference value: 100%); type: ADME; settings: recombinant CYP1A1, probe 7-ethoxyresorufin, read-out: Activity
[9] = system: MDA-MB-435; experiment: Anticancer activity against human MDA-MB-435 cells assessed as cell growth at 0.1 uM incubated for 48 hrs by SRB assay; type: functional; settings: read-out: Activity
[10] = system: MDA-MB-468; experiment: Anticancer activity against human MDA-MB-468 cells assessed as inhibition of cell growth incubated for 48 hrs by SRB assay; type: functional; settings: for CC50: read-out: LC50 (the source's name)
[11] = system: MDA-MB-435; experiment: Anticancer activity against human MDA-MB-435 cells assessed as inhibition of cell growth incubated for 48 hrs by SRB assay; type: functional
[12] = system: NCI-H226; experiment: Anticancer activity against human NCI-H226 cells assessed as inhibition of cell growth incubated for 48 hrs by SRB assay; type: functional
[13] = system: MCF7; experiment: Anticancer activity against human MCF7 cells assessed as cell growth at 10 uM incubated for 48 hrs by SRB assay; type: functional; settings: read-out: Activity
[14] = molecular target: T1, CYP1A1; experiment: Inhibition of recombinant CYP1A1 (unknown origin) assessed as residual enzyme activity using 7-ethoxyresorufin as substrate at 1 uM incubated for 15 mins by resorufin dye based spectrofluorimetry (reference value: 100%); type: ADME; settings: recombinant CYP1A1, probe 7-ethoxyresorufin, read-out: Activity
[15] = system: NCI-H226; experiment: Anticancer activity against human NCI-H226 cells assessed as cell growth at 10 uM incubated for 48 hrs by SRB assay; type: functional; settings: read-out: Activity
[16] = system: MCF7; experiment: Anticancer activity against human MCF7 cells assessed as cell growth at 100 uM incubated for 48 hrs by SRB assay; type: functional; settings: read-out: Activity
[17] = molecular target: T1, CYP1A1; experiment: Inhibition of recombinant CYP1A1 (unknown origin) assessed as residual enzyme activity using 7-ethoxyresorufin as substrate at 0.01 uM incubated for 15 mins by resorufin dye based spectrofluorimetry (reference value: 100%); type: ADME; settings: recombinant CYP1A1, probe 7-ethoxyresorufin, read-out: Activity
[18] = system: NCI-H226; experiment: Anticancer activity against human NCI-H226 cells assessed as cell growth at 100 uM incubated for 48 hrs by SRB assay; type: functional; settings: read-out: Activity
[19] = molecular target: T1, CYP1A1; experiment: Inhibition of recombinant CYP1A1 (unknown origin) assessed as residual enzyme activity using 7-ethoxyresorufin as substrate at 0.1 uM incubated for 15 mins by resorufin dye based spectrofluorimetry (reference value: 100%); type: ADME; settings: recombinant CYP1A1, probe 7-ethoxyresorufin, read-out: Activity
[20] = system: MDA-MB-468; experiment: Anticancer activity against human MDA-MB-468 cells assessed as cell growth at 10 uM incubated for 48 hrs by SRB assay; type: functional; settings: read-out: Activity
[21] = system: MDA-MB-435; experiment: Anticancer activity against human MDA-MB-435 cells assessed as cell growth at 1 uM incubated for 48 hrs by SRB assay; type: functional; settings: read-out: Activity
[22] = system: MDA-MB-468; experiment: Anticancer activity against human MDA-MB-468 cells assessed as cell growth at 100 uM incubated for 48 hrs by SRB assay; type: functional; settings: read-out: Activity
[23] = system: MDA-MB-435; experiment: Anticancer activity against human MDA-MB-435 cells assessed as cell growth at 10 uM incubated for 48 hrs by SRB assay; type: functional; settings: read-out: Activity
[24] = system: MDA-MB-468; experiment: Anticancer activity against human MDA-MB-468 cells assessed as cell growth at 0.1 uM incubated for 48 hrs by SRB assay; type: functional; settings: read-out: Activity
[25] = molecular target: T1, CYP1A1; experiment: Inhibition of recombinant CYP1A1 (unknown origin) assessed as residual enzyme activity using 7-ethoxyresorufin as substrate at 50 uM incubated for 15 mins by resorufin dye based spectrofluorimetry (reference value: 100%); type: ADME; settings: recombinant CYP1A1, probe 7-ethoxyresorufin, read-out: Activity
[26] = system: MDA-MB-468; experiment: Anticancer activity against human MDA-MB-468 cells assessed as cell growth at 1 uM incubated for 48 hrs by SRB assay; type: functional; settings: read-out: Activity
[27] = system: MDA-MB-435; experiment: Anticancer activity against human MDA-MB-435 cells assessed as cell growth at 100 uM incubated for 48 hrs by SRB assay; type: functional; settings: read-out: Activity
[28] = molecular target: T1, CYP1A1; experiment: Inhibition of recombinant CYP1A1 (unknown origin) assessed as residual enzyme activity using 7-ethoxyresorufin as substrate at 10 uM incubated for 15 mins by resorufin dye based spectrofluorimetry (reference value: 100%); type: ADME; settings: recombinant CYP1A1, probe 7-ethoxyresorufin, read-out: Activity

Row | SMILES | growth at 0.1 µM [2] [%] | growth at 1 µM [3] [%] | IC50 [4] [µM] | GI50 [5] [µM] | TGI [5] [µM] | CC50 [5] [µM] | growth at 0.1 µM [6] [%] | growth at 1 µM [7] [%] | activity at 0.25 h, 100 µM [8] [%] | growth at 0.1 µM [9] [%] | GI50 [10] [µM] | TGI [10] [µM] | CC50 [10] [µM] | GI50 [11] [µM] | LC50 [11] [µM] | TGI [11] [µM] | GI50 [12] [µM] | LC50 (concentration killing 50% of cells) [12] [µM] | TGI [12] [µM] | growth at 10 µM [13] [%] | other results
1 | Cc1sc2[nH]c(CNc3ccc(F)cc3)nc(=O)c2c1C | 96.5 | 86.9 | 0.7 | 65.8 | > 100 | > 100 | 91.4 | 94 | 9.07 | 99.9 | > 100 | > 100 | > 100 | > 100 | > 100 | > 100 | > 100 | > 100 | > 100 | 84.1 | activity at 0.25 h, 5 µM [1]: 23.9%; activity at 0.25 h, 1 µM [14]: 46%; growth at 10 µM [15]: 77.9%; growth at 100 µM [16]: 26.3%; activity at 0.25 h, 0.01 µM [17]: 91.7%; growth at 100 µM [18]: 51.9%; activity at 0.25 h, 0.1 µM [19]: 85.3%; growth at 10 µM [20]: 94.4%; growth at 1 µM [21]: 97.9%; growth at 100 µM [22]: 56.8%; growth at 10 µM [23]: 94.6%; growth at 0.1 µM [24]: 99.2%; activity at 0.25 h, 50 µM [25]: 13.5%; growth at 1 µM [26]: 95%; growth at 100 µM [27]: 83.5%
2 | Cc1cc(C)n2ncc(C(=O)NCc3ccc(Cl)cc3)c2n1 | 90.1 | 87.8 | 10 | 57.7 | > 100 | > 100 | 90.9 | 88.2 | 50.8 | 100 | 58.5 | > 100 | > 100 | > 100 | > 100 | > 100 | > 100 | > 100 | > 100 | 80.4 | activity at 0.25 h, 5 µM [1]: 71.8%; growth at 10 µM [15]: 82.6%; growth at 100 µM [16]: 20.6%; activity at 0.25 h, 0.01 µM [17]: 98.7%; growth at 100 µM [18]: 58.3%; activity at 0.25 h, 0.1 µM [19]: 89.8%; growth at 10 µM [20]: 77.6%; growth at 1 µM [21]: 99.9%; growth at 100 µM [22]: 23.6%; growth at 10 µM [23]: 98.1%; growth at 0.1 µM [24]: 90.9%; activity at 0.25 h, 50 µM [25]: 64.7%; growth at 1 µM [26]: 82.6%; growth at 100 µM [27]: 70%
3 | Cc1ccc(-c2cc3cc(F)ccc3[nH]2)cc1N | 100 | 100 | 0.13 | > 100 | > 100 | > 100 | 100 | 73.1 | 8.54 | 47.8 | > 100 | > 100 | > 100 | < 0.1 | > 100 | > 100 | > 100 | > 100 | > 100 | 70.9 | activity at 0.25 h, 1 µM [14]: 35.3%; growth at 10 µM [15]: 98.9%; growth at 100 µM [16]: 67.1%; activity at 0.25 h, 0.01 µM [17]: 96.8%; growth at 100 µM [18]: 90%; activity at 0.25 h, 0.1 µM [19]: 52.6%; growth at 10 µM [20]: 99.8%; growth at 1 µM [21]: 40%; activity at 0.25 h, 10 µM [28]: 12.8%; growth at 100 µM [22]: 96.8%; growth at 10 µM [23]: 30.6%; growth at 0.1 µM [24]: 100%; activity at 0.25 h, 50 µM [25]: 10.6%; growth at 1 µM [26]: 100%; growth at 100 µM [27]: 23.1%
